The subject of data set [1] is oligonucleotide duplexes. As to the kind of experiment: Tm values and thermodynamic parameters of duplex formation (absorbance vs. temperature melting curves). The format is binding. As to conditions: for Tm / ΔG / ΔH / ΔS: 10 mM Na-cacodylate, 100 mM NaCl, 10 mM MgCl2, pH 7; for Tm: 5 μM single strand concentration; for ΔG: duplex formation (ΔG°298); for ΔG / ΔH / ΔS: 5 μM single strand, MeltWin 3.0; for ΔH / ΔS: duplex formation. As to the method: Determination of melting curves and thermodynamics: Absorbance vs. temperature profiles were measured on Cary 1 or 1E spectrophotometers (Varian, Australia) with a Cary thermoelectrical controller. […] 3.0. Circular dichroism (CD) spectra were recorded on a Jasco 600 (Jasco, Japan) spectropolarimeter, a thermostatically controlled bath (Lauda RCS-6) in a 1-cm cuvette.

For data set [2], the system named is natural nucleobases. As to conditions: cited from earlier work.

In the oligonucleotide strings, read from the 5' end, every base follows the letter of its sugar. An asterisk marks phosphorothioate; unmarked linkages are phosphodiester. Other units and linkages are bracketed, terminal groups are in braces. A string of capitals states the bases alone. [z2A] = 2-aza-2'-deoxyadenosine; d = 2'-deoxy (DNA)

Results on 14 molecules are retold here after patent US20070015725A1, “2-azapurine compounds and their uses” (Roche Diagnostics, GMBH, priority 1999, published 2007).

Broadly, the Tm is the temperature at the midpoint of the melting transition. Regarding “5′-d(TAGGTC6ATACT) 3′-d(ATCCAGGTATGA): duplex SEQ ID NO: 3 with SEQ ID NO: 4; 6: z^2Ad; one z^2Ad-dG pair (chain 1 dTdAdGdGdTdCd[z2A]dAdTdAdCdT; chain 2: unmodified DNA)”, in data set [1], the Tm turned out to be 46 °C, the ΔG was -9.9 kcal/mol, the ΔH was -83 kcal/mol and the ΔS is −236 cal/K mol.
For “5′-d(TAGGTC6ATACT) 3′-d(ATCCAGTTATGA): duplex SEQ ID NO: 3 with SEQ ID NO: 2; 6: z^2Ad; one z^2Ad-dT pair (chain 1 TAGGTCAATACT; chain 1: DNA, [z2A] at 7, backbone not given here; chain 2: unmodified DNA)”, in that order: 42 °C, -9.2 kcal/mol, -85 kcal/mol and −245 cal/K mol.
For “5′-d(TAGGTC66TACT) 3′-d(ATCCAGAAATGA): duplex SEQ ID NO: 5 with SEQ ID NO: 6; 6: z^2Ad; two z^2Ad-dA pairs (chain 1 TAGGTCNNTACT; z2Ad modified nucleosides; modified_base (7)..(8) n = 2-Aza 2′-deoxyadenosine)”, in that order: 25 °C, -5.7 kcal/mol, -49 kcal/mol and −141 cal/K mol.
“5′-d(TAGGTC66TACT) 3′-d(ATCCAGCCATGA): duplex SEQ ID NO: 5 with SEQ ID NO: 7; 6: z^2Ad; two z^2Ad-dC pairs (chain 1 TAGGTCNNTACT; z2Ad modified nucleosides; modified_base (7)..(8) n = 2-Aza 2′-deoxyadenosine)”: in data set [1], the Tm is 20 °C, the ΔG was -5.5 kcal/mol, the ΔH was -41 kcal/mol and the ΔS was −113 cal/K mol.
For “5′-d(TAGGTC66TACT) 3′-d(ATCCAGGGATGA): duplex SEQ ID NO: 5 with SEQ ID NO: 8; 6: z^2Ad; two z^2Ad-dG pairs (chain 1 TAGGTCNNTACT; z2Ad modified nucleosides; modified_base (7)..(8) n = 2-Aza 2′-deoxyadenosine)”, in that order: 46 °C, -10.1 kcal/mol, -74 kcal/mol and −206 cal/K mol.
Regarding “5′-d(TAGGTC66TACT) 3′-d(ATCCAGTTATGA): duplex SEQ ID NO: 5 with SEQ ID NO: 2; 6: z^2Ad; two z^2Ad-dT pairs (chain 1 dTdAdGdGdTdCd[z2A]d[z2A]dTdAdCdT; chain 2: unmodified DNA)”, in data set [1], the Tm is 37 °C, the ΔG is -7.7 kcal/mol, the ΔH is -76 kcal/mol and the ΔS is listed as −219 cal/K mol.
“5′-d(TAGGTCAATACT) 3′-d(ATCCAGGGATGA): unmodified duplex SEQ ID NO: 1 with SEQ ID NO: 8; two dA-dG mismatches (unmodified DNA) [reference compound]”: in data set [1], the Tm turned out to be 36 °C, the ΔG is -7.4 kcal/mol, the ΔH was -47 kcal/mol and the ΔS is given as −127 cal/K mol.
For “5′-d(TAGGTCAATACT) 3′-d(ATCCAGTTATGA): unmodified standard duplex, SEQ ID NO: 1 with SEQ ID NO: 2 (= SEQ ID NO: 10) (listed as DNA, chemistry not fully specified; one strand is listed 3' to 5') [reference compound]”, in data set [1], the Tm was determined as 46 °C, the ΔG was -10.4 kcal/mol, the ΔH is -82 kcal/mol and the ΔS is given as −230 cal/K mol. Moreover, the Tm in data set [1] (listed as 5′-d(TAGGTCAATACT) 5′-d(AGTATTGACCTA)) is 47 °C.
For “5′-d(TAGGTCGGTACT) 3′-d(ATCCAGCCATGA): unmodified duplex SEQ ID NO: 9 with SEQ ID NO: 7; two G-C pairs (listed as DNA, chemistry not fully specified; one strand is listed 3' to 5') [reference compound]”, in data set [1], the Tm came out at 54 °C.
For the molecule `Nc1nnnc2c1ncn2[C@H]1C[C@H](O)[C@@H](CO)O1` [Compound 2, 4-Amino-7-(2-deoxy-β-D-erythro-pentofuranosyl)-7H-imidazo[4,5-d][1,2,3]-triazine], in data set [1], the “base pairing with 2′-deoxyguanosine (dG)” value is reported as “specifically stable base pairs”; the “base pairing with dT, dC and dA” value is on record as “much less stable base pairs”.
Regarding `O=c1[nH]nnc2c1ncn2[C@H]1C[C@H](O)[C@@H](CO)O1` [Compound 3, 7-(2-deoxy-β-D-erythro-pentofuranosyl)-7H-imidazo[4,5-d][1,2,3]-triazin-4-one], in data set [2], the “stability of the base pair I^Az/G, less than the base pair A/T” value was 9 ° and the “stability of the base pair I^Az/G, less than the regular base pair C/G” value is reported as 13 °.
What is called melting point is the temperature of the solid-liquid transition. Regarding `OC[C@H]1O[C@@H](N2CNc3c2nnn2ccnc32)C[C@@H]1O` [Compound 7, 3-(2-Deoxy-β-D-erythro-pentofuranosyl)-1H-diimidazo[1,2-c:4′,5′-e][1,2,3]-triazine], the melting point is 151 to 152 °C (dec.).
On the same count and under the same terms, the value for `CC(C)CN(C=Nc1nnnc2c1ncn2[C@H]1C[C@H](O)[C@@H](CO)O1)CC(C)C` [Compound 9b, 7-(2-Deoxy-β-D-erythro-pentofuranosyl)-4-{[(di-isobutylamino)methylidene]-amino}-7H-imidazo[4,5-d][1,2,3]-triazine] was 138 to 140 °C; that for `CCCCN(C=Nc1nnnc2c1ncn2[C@H]1C[C@H](O)[C@@H](CO)O1)CCCC` [Compound 9c, 7-(2-Deoxy-β-D-erythro-pentofuranosyl)-4-{[(di-n-butylamino)methylidene]-amino}-7H-imidazo[4,5-d][1,2,3]-triazine] was 107 to 109 °C.
